Reference: ChEMBL document CHEMBL1275310, “Synthesis and screening of some novel fused thiophene and thienopyrimidine derivatives for anti-avian influenza virus (H5N1) activity” (2010)

Legend:
Assay type in all cases: functional
Influenza A virus [1] = assay: Antiviral activity against Influenza A virus (A/chicken/Egypt/1/2006 (H5N1)) infected in MDCK cells assessed as virus-induced cytopathogenicity at 40 ug after 3 to 4 days by plaque reduction assay
Influenza A virus [2] = assay: Antiviral activity against Influenza A virus (A/chicken/Egypt/1/2006 (H5N1)) infected in MDCK cells assessed as virus-induced cytopathogenicity at 20 ug after 3 to 4 days by plaque reduction assay
Influenza A virus [3] = assay: Antiviral activity against Influenza A virus (A/chicken/Egypt/1/2006 (H5N1)) infected in MDCK cells assessed as virus-induced cytopathogenicity at 10 ug after 3 to 4 days by plaque reduction assay
Influenza A virus [4] = assay: Antiviral activity against Influenza A virus (A/chicken/Egypt/1/2006 (H5N1)) infected in MDCK cells assessed as virus-induced cytopathogenicity at 5 ug after 3 to 4 days by plaque reduction assay

For `NC(=O)c1c(N)sc2c1-c1ccccc1CC2`, the “inhibition (INH)” value (Influenza A virus [1]) was 89%.
With `O=c1[nH]c(=S)[nH]c2sc3c(c12)-c1ccccc1CC3` the “inhibition (INH)” value (Influenza A virus [1]) was 65%.
`O=c1[nH]c(=O)c2c3c(sc2[nH]1)CCc1ccccc1-3` was tested, and the “inhibition (INH)” value (Influenza A virus [2]) was 95%, the “inhibition (INH)” value (Influenza A virus [3]) was 94% and the “inhibition (INH)” value (Influenza A virus [1]) was 98%. For the same compound, the “inhibition (INH)” value (Influenza A virus [4]) was 92%.
